Reference: US10934303B2, “Aryl ethene derivative and pharmaceutical composition containing same as active ingredient” (priority 2016, dated 2021)
Where two headings read alike, the source gives them in different places.

What was measured:
[1] = biological target: GST-bound ER alpha ligand-binding domain (LBD) (Homo sapiens (Human), UniProt P03372); test: biochemical
Description: (§2) The arylethene derivative of the present invention was sequentially added to a 384 well plate from a concentration of 10 μM to a final concentration of two-fold dilution. […] After all reagents were added, a reaction was carried out with gentle shaking at 20° C. for 1 hour, and after the reaction, a binding activity was measured by a TR-FRET method.

ERRγ = assay type: cell-based
Description: AD293 was cultured in a 24-well plate for 24 hours, using a DMEM High glucose culture medium (Hyclone, USA) to which 0.5% FBS was added at a concentration of 9×10^4/well. The culture medium was replaced with a DMEM High glucose culture medium to which 10% FBS was added, treatment was performed with a mixture of a TransIT-LT1 transfection reagent (Mirus, USA) and pCMX-Gal4-ERRγ, pFR-luciferase reporter plasmid, pCMV-β-gal, and culturing was performed for 24 hours. Thereafter, a luciferase activity assay and a β-gal assay were performed, respectively, with a lysate obtained after treatment with the arylethene derivative of the present invention for 24 hours. All results were derived from three or more independent repetitive experiments.

GST-bound ERR alpha LBD = GST-bound ERR alpha LBD (Homo sapiens (Human), UniProt P11474); details: TR-FRET, PGC1a coactivator; read-out: Binding Assay, IC50 ERRα
Description: as §2

[2] = biological target: GST-bound ERR gamma ligand-binding domain (LBD) (Homo sapiens (Human), UniProt P62508); test: ERRγ binding assay (inverse agonist assay), TR-FRET; details: TR-FRET, PGC1a coactivator; read-out: Binding Assay, IC50 ERRγ
Description: 1) ERRγ Binding Assay (Inverse Agonist Assay)
as §2

hERG channel = hERG channel (Homo sapiens (Human), UniProt Q12809); details: read-out: hERG IC50; fluorescence polarization assay
CYP1A2 = CYP1A2 (Homo sapiens (Human), UniProt P05177); test: Cytochrome P450 activity inhibition, CYP1A2; assay type: in vitro ADME; details: 10 μM, human liver microsomes, Phenacetin substrate
From the text: (§1) 1) Cytochrome P450 (CYP450) Activity Inhibition Evaluation

[3] = 1 μM, 30 minutes, 37° C., NADPH
Description: 2) Microsomal Stability Evaluation
(§3) Four liver microsomes (Human, Dog, Rat, Mouse 0.5 mg/ml) with a 0.1 M phosphate buffer solution (pH 7.4), and the arylethene derivative of the present invention were added to a concentration of 1 μM, culturing was performed at 37° C. for 5 minutes in advance, a NADPH regeneration system solution was added thereto, and culturing was performed at 37° C. for 30 minutes. Thereafter, in order to complete the reaction, an acetonitrile solution containing an internal standard material (chlorpropamide) was added thereto, centrifugation (14,000 rpm, 4° C.) was performed for 5 minutes, and a supernatant was injected into a LC-MS/MS system to analyze the substrate drug, thereby evaluating metabolism stability to the arylethene derivative of the present invention.

[4] = 1 μM, 30 minutes, 37° C., NADPH; remark: listed apart in the source
Description: 2) Microsomal Stability Evaluation
as §3

in vivo = assay type: in vivo; details: rat; for Cmax: read-out: Cmax
CYP2C9 = CYP2C9 (Homo sapiens (Human), UniProt P11712); test: Cytochrome P450 activity inhibition, CYP2C9; assay type: in vitro ADME; details: 10 μM, human liver microsomes, Diclofenac substrate
From the text: as §1

CYP2D6 = CYP2D6 (Homo sapiens (Human), UniProt P10635); test: Cytochrome P450 activity inhibition, CYP2D6; assay type: in vitro ADME; details: 10 μM, human liver microsomes, Dextromethorphan substrate
From the text: as §1

CYP2C19 = CYP2C19 (Homo sapiens (Human), UniProt P33261); test: Cytochrome P450 activity inhibition, CYP2C19; assay type: in vitro ADME; details: 10 μM, human liver microsomes, S-mephenytoin substrate
From the text: as §1

[5] = 1 μM, 30 minutes, 37° C., NADPH; remark: listed apart in the source
Description: 2) Microsomal Stability Evaluation
as §3

[6] = 1 μM, 30 minutes, 37° C., NADPH; remark: listed apart in the source
Description: 2) Microsomal Stability Evaluation
as §3

CYP3A4 = CYP3A4 (Homo sapiens (Human), UniProt P08684); test: Cytochrome P450 activity inhibition, CYP3A4; assay type: in vitro ADME; details: 10 μM, human liver microsomes, Midazolam substrate
From the text: as §1

in vitro = in vitro ADME; details: PBS pH 7.4, 25° C., 5 hours
ERRβ = ERRβ (Homo sapiens, UniProt O95718); details: TR-FRET, PGC1a coactivator; read-out: Binding Assay, IC50 ERRβ
Description: as §2

[7] = TR-FRET, beta-estradiol 4 nM as agonist, read-out: Binding Assay, IC50 ERα
[8] = activity relative to reference compound GSK5182, 10 μM

Sequence of ERRβ (O95718 whole entry, looked up): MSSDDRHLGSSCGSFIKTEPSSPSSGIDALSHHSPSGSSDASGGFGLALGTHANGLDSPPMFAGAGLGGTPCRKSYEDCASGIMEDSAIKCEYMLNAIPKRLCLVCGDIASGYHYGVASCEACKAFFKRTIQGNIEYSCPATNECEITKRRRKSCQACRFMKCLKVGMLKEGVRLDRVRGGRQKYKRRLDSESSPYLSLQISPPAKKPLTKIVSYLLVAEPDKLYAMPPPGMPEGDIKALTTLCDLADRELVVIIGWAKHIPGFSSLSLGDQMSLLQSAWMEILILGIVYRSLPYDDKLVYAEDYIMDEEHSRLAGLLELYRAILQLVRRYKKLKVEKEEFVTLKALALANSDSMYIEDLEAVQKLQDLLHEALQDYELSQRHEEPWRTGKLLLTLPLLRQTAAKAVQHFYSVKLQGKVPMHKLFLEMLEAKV
Sequence of GST-bound ER alpha ligand-binding domain (LBD) (P03372 whole entry, looked up, the tested form may be a part): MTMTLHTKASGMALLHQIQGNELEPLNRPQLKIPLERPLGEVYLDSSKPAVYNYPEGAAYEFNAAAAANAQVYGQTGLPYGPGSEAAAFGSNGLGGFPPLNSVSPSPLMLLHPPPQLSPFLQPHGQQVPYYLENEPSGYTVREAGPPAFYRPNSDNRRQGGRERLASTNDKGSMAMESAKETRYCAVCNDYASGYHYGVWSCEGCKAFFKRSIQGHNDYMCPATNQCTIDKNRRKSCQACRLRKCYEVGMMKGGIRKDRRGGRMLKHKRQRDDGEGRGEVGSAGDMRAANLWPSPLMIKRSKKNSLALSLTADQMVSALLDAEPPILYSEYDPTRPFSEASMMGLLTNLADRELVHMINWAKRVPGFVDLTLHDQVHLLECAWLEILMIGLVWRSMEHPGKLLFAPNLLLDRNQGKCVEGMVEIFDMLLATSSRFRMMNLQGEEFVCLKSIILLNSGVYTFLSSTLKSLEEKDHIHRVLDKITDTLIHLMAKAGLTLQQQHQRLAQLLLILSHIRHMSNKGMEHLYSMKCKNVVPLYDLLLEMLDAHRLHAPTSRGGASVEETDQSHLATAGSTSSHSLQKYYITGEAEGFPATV
Sequence of CYP2C9 (P11712 whole entry): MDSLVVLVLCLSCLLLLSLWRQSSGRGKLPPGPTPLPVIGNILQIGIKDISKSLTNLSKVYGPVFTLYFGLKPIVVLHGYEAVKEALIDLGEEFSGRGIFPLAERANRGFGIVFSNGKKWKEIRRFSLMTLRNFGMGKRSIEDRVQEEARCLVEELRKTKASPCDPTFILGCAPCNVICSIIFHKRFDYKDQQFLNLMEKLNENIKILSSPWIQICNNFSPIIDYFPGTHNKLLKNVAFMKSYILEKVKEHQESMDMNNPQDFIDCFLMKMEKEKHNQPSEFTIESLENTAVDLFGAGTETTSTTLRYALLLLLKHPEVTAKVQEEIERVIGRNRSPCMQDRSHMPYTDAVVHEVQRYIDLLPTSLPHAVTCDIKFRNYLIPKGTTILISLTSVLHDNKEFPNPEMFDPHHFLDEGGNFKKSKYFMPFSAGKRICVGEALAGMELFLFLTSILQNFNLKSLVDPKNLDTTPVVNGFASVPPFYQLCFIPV
Sequence of CYP2C19 (P33261 whole entry): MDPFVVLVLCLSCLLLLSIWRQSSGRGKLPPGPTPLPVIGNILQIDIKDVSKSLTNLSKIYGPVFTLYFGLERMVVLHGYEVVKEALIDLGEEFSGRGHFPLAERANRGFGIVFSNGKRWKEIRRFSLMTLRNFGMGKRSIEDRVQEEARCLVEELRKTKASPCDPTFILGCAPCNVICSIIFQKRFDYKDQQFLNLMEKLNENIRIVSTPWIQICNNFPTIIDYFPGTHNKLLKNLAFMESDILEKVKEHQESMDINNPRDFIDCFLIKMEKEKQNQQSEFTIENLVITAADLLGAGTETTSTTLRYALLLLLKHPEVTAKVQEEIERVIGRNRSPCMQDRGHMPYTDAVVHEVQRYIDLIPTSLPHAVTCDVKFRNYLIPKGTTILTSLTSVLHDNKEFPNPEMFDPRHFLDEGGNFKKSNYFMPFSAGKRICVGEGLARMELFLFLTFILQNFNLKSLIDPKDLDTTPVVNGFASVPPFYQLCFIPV
Sequence of GST-bound ERR alpha LBD (P11474 193-421): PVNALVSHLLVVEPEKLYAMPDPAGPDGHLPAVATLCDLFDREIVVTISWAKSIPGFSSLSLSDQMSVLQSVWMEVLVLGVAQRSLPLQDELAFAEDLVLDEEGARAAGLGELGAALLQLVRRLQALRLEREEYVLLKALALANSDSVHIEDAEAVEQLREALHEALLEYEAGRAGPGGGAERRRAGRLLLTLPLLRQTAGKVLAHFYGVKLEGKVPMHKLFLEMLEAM
Sequence of CYP3A4 (P08684 whole entry): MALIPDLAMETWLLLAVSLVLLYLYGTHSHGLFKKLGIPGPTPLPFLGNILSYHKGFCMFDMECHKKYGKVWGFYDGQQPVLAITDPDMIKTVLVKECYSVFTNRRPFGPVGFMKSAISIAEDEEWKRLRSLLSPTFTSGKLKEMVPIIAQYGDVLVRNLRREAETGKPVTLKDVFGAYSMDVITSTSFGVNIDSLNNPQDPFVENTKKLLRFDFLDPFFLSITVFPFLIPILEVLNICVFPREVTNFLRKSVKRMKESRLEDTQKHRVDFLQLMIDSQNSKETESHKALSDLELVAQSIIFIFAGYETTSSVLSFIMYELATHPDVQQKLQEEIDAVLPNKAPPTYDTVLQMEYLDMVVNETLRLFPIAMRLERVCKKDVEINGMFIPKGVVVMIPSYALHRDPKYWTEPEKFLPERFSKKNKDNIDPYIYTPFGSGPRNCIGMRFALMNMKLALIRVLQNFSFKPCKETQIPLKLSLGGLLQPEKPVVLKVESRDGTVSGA
Sequence of CYP1A2 (P05177 whole entry): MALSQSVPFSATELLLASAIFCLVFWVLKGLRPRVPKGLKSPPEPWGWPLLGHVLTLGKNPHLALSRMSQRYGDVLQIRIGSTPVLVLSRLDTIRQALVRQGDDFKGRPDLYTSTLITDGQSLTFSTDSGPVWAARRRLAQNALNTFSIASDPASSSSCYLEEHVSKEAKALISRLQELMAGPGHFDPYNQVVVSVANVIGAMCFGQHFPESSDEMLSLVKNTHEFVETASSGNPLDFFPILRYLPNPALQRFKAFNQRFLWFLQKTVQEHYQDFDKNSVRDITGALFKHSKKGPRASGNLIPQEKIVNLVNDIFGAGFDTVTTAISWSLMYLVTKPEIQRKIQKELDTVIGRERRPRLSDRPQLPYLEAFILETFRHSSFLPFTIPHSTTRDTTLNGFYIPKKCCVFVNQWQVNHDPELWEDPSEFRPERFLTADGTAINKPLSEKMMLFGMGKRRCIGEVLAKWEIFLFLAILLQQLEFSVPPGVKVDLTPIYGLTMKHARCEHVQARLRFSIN
Sequence of CYP2D6 (P10635 whole entry): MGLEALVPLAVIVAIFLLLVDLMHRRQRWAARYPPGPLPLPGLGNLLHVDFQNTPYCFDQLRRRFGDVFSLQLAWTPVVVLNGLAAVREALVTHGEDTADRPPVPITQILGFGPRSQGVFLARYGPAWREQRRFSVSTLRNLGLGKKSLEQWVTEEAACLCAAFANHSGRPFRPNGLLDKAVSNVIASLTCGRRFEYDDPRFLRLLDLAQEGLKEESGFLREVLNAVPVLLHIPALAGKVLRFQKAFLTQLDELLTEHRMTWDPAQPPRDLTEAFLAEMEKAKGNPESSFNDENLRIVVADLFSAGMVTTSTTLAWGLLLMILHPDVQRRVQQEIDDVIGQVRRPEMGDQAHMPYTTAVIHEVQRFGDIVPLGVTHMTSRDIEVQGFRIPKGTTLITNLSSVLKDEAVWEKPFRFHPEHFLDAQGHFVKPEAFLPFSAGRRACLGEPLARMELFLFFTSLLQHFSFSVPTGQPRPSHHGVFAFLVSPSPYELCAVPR
Sequence of GST-bound ERR gamma ligand-binding domain (LBD) (P62508 233-457): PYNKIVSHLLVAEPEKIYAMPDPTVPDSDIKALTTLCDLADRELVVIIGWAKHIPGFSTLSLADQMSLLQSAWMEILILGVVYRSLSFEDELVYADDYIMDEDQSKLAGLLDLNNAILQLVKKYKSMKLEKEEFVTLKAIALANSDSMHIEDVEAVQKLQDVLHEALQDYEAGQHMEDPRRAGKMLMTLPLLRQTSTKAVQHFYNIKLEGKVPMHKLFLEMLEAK

| Structure (SMILES) | IC50 [1, 7] | Functional Assay at 10 μM (% of control), Cpds (ERRγ; 10 μM, 24 hours, AD293) | Functional Assay, Cpds/Ref 5182 (ERRγ; [8]) | IC50 (GST-bound ERR alpha LBD) | IC50 (hERG channel) | CYP inhibition (% of control) 1A2 (CYP1A2) | MS(Microsomal Stability) (%) human [3] | MS(Microsomal Stability) (%) mouse [4] | CYP inhibition (% of control) 2C9 (CYP2C9) | CYP inhibition (% of control) 2D6 (CYP2D6) | CYP inhibition (% of control) 2C19 (CYP2C19) | MS(Microsomal Stability) (%) dog [5] | MS(Microsomal Stability) (%) rat [6] | CYP inhibition (% of control) 3A4 (CYP3A4) | Permeability Pampa (in vitro) | other results |
| --- | --- | --- | --- | --- | --- | --- | --- | --- | --- | --- | --- | --- | --- | --- | --- | --- |
| CN1CCCC1CCOc1ccc(/C(=C(/CCCO)c2ccccc2)c2ccc(O)cc2)cc1 (stereo not shown) [Compound 6g] | 0.331 µM | 4.94 % of control | 1.60 | > 10 µM | 5.4 µM | – | – | – | – | – | – | – | – | – | – | IC50 [2]: 0.03 µM |
| OCCC/C(=C(/c1ccc(C2CCN(C3CC3)CC2)cc1)c1cccc(O)c1)c1ccccc1 [Compound 22r] | – | – | – | – | 16.4 µM | >100 % of control | 62.0% | 24.5% | >100 % of control | 91.8 % of control | >100 % of control | 56.9% | 49.9% | 82.7 % of control | – | AUCINF (in vivo; IV, 1 mg/kg): 0.87 μMh; AUCall (in vivo; IV, 1 mg/kg): 0.85 μMh; Vss (in vivo; IV, 1 mg/kg): 4.6 L/kg; t1/2 (in vivo; IV, 1 mg/kg): 1.8 h; AUCINF (in vivo; PO, 10 mg/kg): 5.29 μMh; AUCall (in vivo; PO, 10 mg/kg): 4.93 μMh; BA (in vivo; PO, 10 mg/kg): 58.2%; Tmax (in vivo; PO, 10 mg/kg): 1 h; t1/2 (in vivo; PO, 10 mg/kg): 2.3 h; Cmax (in vivo; PO, 10 mg/kg): 1510 nM |
| OCCC/C(=C(\c1ccc(O)cc1)c1ccc(N2CCN(C3CCCC3)CC2)cc1)c1ccccc1 [Compound 22n] | – | 3.47 % of control | 1.28 | – | 14.6 µM | 99 % of control | 56.3% | 37.8% | 97.4 % of control | 82.6 % of control | 83 % of control | 72.0% | 47.8% | 88.3 % of control | – | – |
| Cc1ccc(/C(=C(\CCCO)c2ccccc2)c2ccc(N3CCN(C)CC3)cc2)cc1 [Compound 18f] | > 10 µM | 2.57 % of control | 0.82 | > 10 µM | 18.9 µM | >100 % of control | 79.2% | 47.6% | 62.3 % of control | 68.2 % of control | 72.8 % of control | – | 65.7% | 70.9 % of control | 4.84 10^−6 cm/s | AUCINF (in vivo; IV, 1 mg/kg): 0.29 μMh; AUCall (in vivo; IV, 1 mg/kg): 0.28 μMh; Vss (in vivo; IV, 1 mg/kg): 30.3 L/kg; t1/2 (in vivo; IV, 1 mg/kg): 2.5 h; AUCINF (in vivo; PO, 10 mg/kg): 7.00 μMh; AUCall (in vivo; PO, 10 mg/kg): 2.93 μMh; BA (in vivo; PO, 10 mg/kg): 41.2%; Tmax (in vivo; PO, 10 mg/kg): 2.4 h; Cmax (in vivo; PO, 10 mg/kg): 450 nM |
| Cc1ccc(/C(=C(\CCCO)c2ccccc2)c2ccc(N3CCNCC3)cc2)cc1 [Compound 20b] | > 10 µM | 3.58 % of control | 0.88 | > 10 µM | – | – | 44% | 28.8% | – | – | – | 58% | 71.5% | – | 3.61 10^−6 cm/s | IC50 (ERRβ): 2.1 µM |
| CC(C)N1CCC(c2ccc(/C(=C(/CCCO)c3ccccc3)c3ccc(O)cc3)cc2)CC1 [Compound 22g] | 4.37 µM | – | – | > 10 µM | 22 µM | – | 42.8% | 10.7% | – | – | – | 54.3% | 43.2% | – | – | – |
| CN1CCC[C@H]1COc1ccc(/C(=C(/CCCO)c2ccccc2)c2ccc(O)cc2)cc1 [Compound 6h] | – | – | – | – | 18 µM | – | – | – | – | – | – | – | – | – | – | IC50 [1]: 1.1 µM; Functional Assay at 10 μM (% of control), Cpds (ERRγ): 5.49 % of control; Functional Assay, Cpds/Ref 5182 (ERRγ): 1.78 |
| CC(C)(C)OC(=O)N1CCN(c2ccc(/C(=C(/CCCO)c3ccccc3)c3ccc(Br)cc3)cc2)CC1 [Compound 18n] | 8.8 µM | 3.36 % of control | 0.82 | 8.25 µM | – | – | – | – | – | – | – | – | – | – | 0.63 10^−6 cm/s | IC50 (ERRβ): 1.09 µM |
| CCN1CCN(c2ccc(/C(=C(/CCCO)c3ccccc3)c3ccc(O)cc3)cc2)CC1 [Compound 18i] | 1.14 µM | 1.88 % of control | 0.97 | > 10 µM | > 30 µM | – | – | – | – | – | – | – | – | – | 1.16 10^−6 cm/s | IC50 [2]: 0.05 µM |
| Cc1ccc(/C(=C(\CCCO)c2ccccc2)c2ccc(N3CCN(C(C)C)CC3)cc2)cc1 [Compound 18b] | > 10 µM | 2.45 % of control | 0.78 | > 10 µM | > 30 µM | 89.8 % of control | 54.2% | 19.7% | 73.4 % of control | 68.9 % of control | 69.7 % of control | – | 40.0% | 53 % of control | 2.09 10^−6 cm/s | AUCINF (in vivo; IV, 1 mg/kg): 0.64 μMh; AUCall (in vivo; IV, 1 mg/kg): 0.58 μMh; Vss (in vivo; IV, 1 mg/kg): 9.8 L/kg; t1/2 (in vivo; IV, 1 mg/kg): 3.1 h; AUCINF (in vivo; PO, 10 mg/kg): 0.36 μMh; AUCall (in vivo; PO, 10 mg/kg): 0.31 μMh; BA (in vivo; PO, 10 mg/kg): 8.7%; Tmax (in vivo; PO, 10 mg/kg): 0.6 h; Cmax (in vivo; PO, 10 mg/kg): 120 nM |
| OCCC/C(=C(\c1ccc(O)cc1)c1ccc(C2CCN(C3CC3)C2)cc1)c1ccccc1 (stereo not shown) [Compound 22t] | 5.94 µM | 6.19 % of control | – | > 10 µM | – | – | – | – | – | – | – | – | – | – | – | IC50 (ERRβ): 3.56 µM |
| CN1CCN(c2ccc(/C(=C(/CCCO)c3ccccc3)c3ccc(O)cc3)cc2)CC1 [Compound 18d] | 1.7 µM | 9.65 % of control | 0.97 | > 10 µM | > 20 µM | 88 % of control | – | – | 67.7 % of control | 98.4 % of control | 81.2 % of control | – | – | 64 % of control | 0.14 10^−6 cm/s | – |
